Tests used:
[1] = tested on: Yellowfever mosquitos (aedes aegypti); experiment: Yellowfever mosquito water treatment test, 4th instar; assay type: in vivo; conditions: 50 ppm; after 6 days
Method: Yellowfever mosquitos (aedes aegypti)
The test compound (1 Vol % in acetone) was applied to water in glass dishes containing 4th instar aedes aegypti. The test dishes were maintained at about 25° C. and observed daily for mortality. Each test weas replicated in 3 test dishes.

[2] = tested on: Meloidogyne incognita J2 larvae; experiment: Root-knot nematode solution assay; assay type: in vivo; conditions: 100 ppm; read after 72 hours; immobility regarded as mortality
Method: Test Procedures for Root-Knot Nematode Solution Assay (Meloidogyne incognita):
To microtiter plates containing about 1.0 mg of compound, 80:20 acetone was added to each well and the solution was mixed to obtain the desired compound concentration. The aqueous nematode suspension containing 20 to 50 Meloidogyne incognita J2 larvae per […] was added to each plate. The plates were then sealed and they were placed in an incubator at 27° C. and about 50% relative humidity. After 72 hours, the population mortality was read, whereby immobility of nematodes was regarded as mortality.

| Structure (SMILES) | mortality compared to untreated controls [1] | mortality compared to untreated controls [2] [%] |
| --- | --- | --- |
| Clc1ccc2c(c1)Oc1ccc(Cl)cc1C(N1CCNCC1)=N2 [I-B.23] | over 90% | – |
| FC(F)(F)c1ccc2c(c1)C(N1CCN(c3ccccc3)CC1)=Nc1ccccc1S2 [I-A.51] | – | 100 |

— patent publication US20060069083A1, “Pesticidal dibenzo(hetero)azepine derivatives” (priority 2002, published 2006)
